Experimental findings from ChEMBL document CHEMBL5518165, “M335, a novel small-molecule STING agonist activates the immune response and exerts antitumor effects” (Eur J Med Chem, 2024) are described below.

Test [1] has as its target Stimulator of interferon genes protein (Homo sapiens) (UniProt Q86WV6). Put plainly: Agonist activity at STING in human THP-1 cells assessed as increase in LC3 protein level by Western blotting analysis. It is filed as cell-based.
For test [2] the target is unchanged. Put plainly: Agonist activity at STING in human THP-1 cells assessed as increase in IRF3 phosphorylation by Western blotting analysis. It is filed as cell-based.
Test [3] has the same target. Description: Agonist activity at STING in human THP-1 cells assessed as increase in TBK1 phosphorylation by Western blotting analysis. The format is cell-based.
For test [4], the target named is T1, Stimulator of interferon genes protein (Mus musculus) (UniProt Q3TBT3).
T1 sequence (whole entry): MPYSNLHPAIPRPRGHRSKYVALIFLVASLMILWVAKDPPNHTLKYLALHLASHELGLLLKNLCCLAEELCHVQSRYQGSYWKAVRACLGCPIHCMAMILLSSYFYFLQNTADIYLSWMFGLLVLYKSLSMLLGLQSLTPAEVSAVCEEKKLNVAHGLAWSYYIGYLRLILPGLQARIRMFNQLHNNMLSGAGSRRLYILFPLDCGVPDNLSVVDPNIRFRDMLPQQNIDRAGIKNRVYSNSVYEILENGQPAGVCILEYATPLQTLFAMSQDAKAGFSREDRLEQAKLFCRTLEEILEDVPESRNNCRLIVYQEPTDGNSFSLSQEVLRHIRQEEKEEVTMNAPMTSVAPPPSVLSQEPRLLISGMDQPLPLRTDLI
Description: Agonist activity at STING in MEF cells assessed as STING translocation to golgi apparatus by measuring increase in red fluorescence incubated for 1 hr by laser scanning confocal microscope analysis. It is filed as cell-based. The note with it: filed as agonist.

The subject of test [5] is Human alphaherpesvirus 1. Put plainly: Antiviral activity against HSV-1-GFP infected in human STING-deficient WT HeLa cells assessed as reduction in viral infection by fluorescent microscopy analysis. The format is functional, organism-based.
Test [6] addresses T1, Stimulator of interferon genes protein (Mus musculus). Description: Agonist activity at STING in MEF cells assessed as STING translocation by measuring aggregation of green fluorescence incubated for 1 hr by laser scanning confocal microscope analysis. It is filed as cell-based. As to conditions: filed as agonist.
The target is the same in test [7]. Description: Agonist activity at STING in MEF cells assessed as nuclear transposition of phosphorylated IRF3 incubated for 1 hr by laser scanning confocal microscope analysis. The format is cell-based. The note with it: filed as agonist.
Test [8] shares this target. Description: Agonist activity at STING in MEF cells assessed as increase in STING oligomerization by Western blotting analysis. The format is cell-based. The note with it: filed as agonist.

The source made the active and inactive calls. The rule behind the calls is not given here.

Stimulator of interferon genes protein (Homo sapiens), sequence (Q86WV6 whole entry): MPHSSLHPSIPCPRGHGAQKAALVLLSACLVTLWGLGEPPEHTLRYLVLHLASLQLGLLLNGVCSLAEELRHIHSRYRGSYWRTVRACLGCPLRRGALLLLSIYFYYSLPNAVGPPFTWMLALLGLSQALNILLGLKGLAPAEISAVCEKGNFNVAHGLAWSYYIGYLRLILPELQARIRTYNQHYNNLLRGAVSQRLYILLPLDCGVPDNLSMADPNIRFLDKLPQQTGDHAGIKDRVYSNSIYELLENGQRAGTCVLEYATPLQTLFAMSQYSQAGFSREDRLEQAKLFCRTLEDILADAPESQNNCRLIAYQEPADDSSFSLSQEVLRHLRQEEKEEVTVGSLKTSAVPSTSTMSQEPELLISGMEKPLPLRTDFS

On to `CC(NC(=O)CC(c1ccccc1)c1ccccc1)c1ccccc1` (centres undefined), for which the result in test [1], in test [2] and in test [3] was inactive.
As for `C[C@@H](NCCC(c1ccccc1)c1ccccc1)c1ccccc1`, the result in test [1], in test [2] and in test [3] was inactive.
As to `C[C@H](NCCC(c1ccccc1)c1ccccc1)c1ccccc1`, the result in test [1], in test [2] and in test [3] was inactive.
For `Nc1nc2c(ncn2[C@@H]2O[C@@H]3COP(=O)(O)O[C@H]4[C@@H](O)[C@H](n5cnc6c(N)ncnc65)O[C@@H]4COP(=O)(O)O[C@@H]2[C@@H]3O)c(=O)[nH]1`, the result in test [4], in test [6], in test [7] and in test [8] was Active. Besides, the result in test [5] was inactive.
